This experiment concerns the target T1, hKv3.1b (Homo sapiens, UniProt P48547).
T1 construct: expressed in transfected cells
T1 sequence (P48547 1-585 isoform P48547-2): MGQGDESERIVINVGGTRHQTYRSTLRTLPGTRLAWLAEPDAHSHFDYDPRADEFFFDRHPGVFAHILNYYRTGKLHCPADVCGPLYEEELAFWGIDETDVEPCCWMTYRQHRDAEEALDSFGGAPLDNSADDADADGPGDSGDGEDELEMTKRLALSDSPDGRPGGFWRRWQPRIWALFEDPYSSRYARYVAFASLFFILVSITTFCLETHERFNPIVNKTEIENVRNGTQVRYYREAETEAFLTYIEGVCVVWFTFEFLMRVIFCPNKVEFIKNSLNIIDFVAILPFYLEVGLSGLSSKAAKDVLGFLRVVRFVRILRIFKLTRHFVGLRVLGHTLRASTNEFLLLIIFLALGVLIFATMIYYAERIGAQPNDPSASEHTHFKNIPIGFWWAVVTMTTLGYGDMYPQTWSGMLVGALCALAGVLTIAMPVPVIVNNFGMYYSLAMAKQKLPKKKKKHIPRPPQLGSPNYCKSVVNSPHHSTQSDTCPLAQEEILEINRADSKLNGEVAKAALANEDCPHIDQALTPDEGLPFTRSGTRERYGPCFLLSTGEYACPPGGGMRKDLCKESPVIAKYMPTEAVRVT
The experiment can be described thus: Automated patch clamp (QPatch-16x) on HEK-293 cells stably expressing hKv3.1b. It is filed as cell-based. The note with it: for ECdelta5 mV: concentration needed to shift the activation threshold 5 mV; for Threshold Shift: maximum absolute hyperpolarizing shift of activation threshold at tested concentrations 0.37-30 μM. The essentials: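 Whole-cell automated patch clamp, extracellular pH 7.4, 4 mM Na2ATP intracellular; holding −80 mV, 200 ms steps −70 to +10 mV. Five ascending concentrations (0.37–30 μM) per cell, ~3 min each, 0.33% DMSO vehicle. Activation threshold (5% of vehicle peak at 10 mV) shift fitted sigmoidally; ECdelta5 mV read from curve.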
(In general: Patch clamp records ionic current or voltage across a cell membrane.)

Structures are written as SMILES.

In the case of `Cc1cnc(CNC(=O)c2ccn(S(=O)(=O)c3ccc(C(F)F)cc3)c2)cn1` [Compound 93, 1-[4-(difluoromethyl)benzene-1-sulfonyl]-N-[(5-methylpyrazin-2-yl)methyl]-1H-pyrrole-3-carboxamide], the “ECdelta5 mV” value is recorded as 1500 nM and the “Threshold Shift” value amounted to 34 mV.
Taken in the same sequence, the figures for `Cc1ccc(S(=O)(=O)n2ccc(C(=O)NCc3cn(C)cn3)c2)cc1` [Compound 40, N-[(1-methylimidazol-4-yl)methyl]-1-(p-tolylsulfonyl)pyrrole-3-carboxamide] were 2000 nM and 22 mV.
Consider `Cc1ccc(S(=O)(=O)n2ccc(C(=O)NCc3cnc(C)o3)c2)cc1` [Compound 38, N-[(2-methyloxazol-5-yl)methyl]-1-(p-tolylsulfonyl)pyrrole-3-carboxamide], for which the “ECdelta5 mV” value worked out at 4600 nM and the “Threshold Shift” value came to 13 mV.
For `COc1ccc(S(=O)(=O)n2ccc(C(=O)NCc3cnc(C)cn3)c2)c(Br)c1` [Compound 105, 1-(2-bromo-4-methoxy-phenyl)sulfonyl-N-[(5-methylpyrazin-2-yl)methyl]pyrrole-3-carboxamide] the same measures were 1200 nM and 24 mV.
On to `Cc1ccc(S(=O)(=O)n2ccc(C(=O)NCc3nc(C)cs3)c2)cc1` [Compound 34, N-[(4-methylthiazol-2-yl)methyl]-1-(p-tolylsulfonyl)pyrrole-3-carboxamide], for which the “ECdelta5 mV” value is recorded as 1100 nM and the “Threshold Shift” value was found to be 18 mV.
Taken in the same sequence, the figures for `Cc1ccc(S(=O)(=O)n2ccc(C(=O)NCc3ncon3)c2)cc1` [Compound 57, 1-(4-methylbenzene-1-sulfonyl)-N-[(1,2,4-oxadiazol-3-yl)methyl]-1H-pyrrole-3-carboxamide] were 3600 nM and 14 mV.
Taken in the same sequence, the figures for `Cc1cnc(CNC(=O)c2ccn(S(=O)(=O)c3ccccc3F)c2)cn1` [Compound 4, 1-(2-fluorophenyl)sulfonyl-N-[(5-methylpyrazin-2-yl)methyl]pyrrole-3-carboxamide] were 3100 nM and 17 mV.
As for `Cc1cnc(CNC(=O)c2ccn(S(=O)(=O)c3cccc(C)c3)c2)nc1` [Compound 62, 1-(3-methylbenzene-1-sulfonyl)-N-[(5-methylpyrimidin-2-yl)methyl]-1H-pyrrole-3-carboxamide], the “ECdelta5 mV” value came to 4900 nM and the “Threshold Shift” value was determined as 12 mV.
Taken in the same sequence, the figures for `Cc1ccc(S(=O)(=O)n2ccc(C(=O)NCc3cnc(C)s3)c2)cc1` [Compound 114, 1-(4-methylbenzene-1-sulfonyl)-N-[(2-methyl-1,3-thiazol-5-yl)methyl]-1H-pyrrole-3-carboxamide] were 1600 nM and 15 mV.
For `Cc1ccc(S(=O)(=O)n2ccc(C(=O)NCc3ccno3)c2)cc1` [Compound 53, 1-(4-methylbenzene-1-sulfonyl)-N-[(1,2-oxazol-5-yl)methyl]-1H-pyrrole-3-carboxamide], the “ECdelta5 mV” value is 2300 nM and the “Threshold Shift” value worked out at 15 mV.
On to `COc1ccc(S(=O)(=O)n2ccc(C(=O)NCc3cnc(C)cn3)c2)cc1F` [Compound 97, 1-(3-fluoro-4-methoxy-phenyl)sulfonyl-N-[(5-methylpyrazin-2-yl)methyl]pyrrole-3-carboxamide], for which the “ECdelta5 mV” value was determined as 3200 nM and the “Threshold Shift” value was 18 mV.
For `Cc1ccc(S(=O)(=O)n2ccc(C(=O)NCc3cc(C)ccn3)c2)cc1` [Compound 16, N-[(4-methyl-2-pyridyl)methyl]-1-(p-tolylsulfonyl)pyrrole-3-carboxamide] the same measures were 3000 nM and 16 mV.
For `Cc1ccc(CNC(=O)c2ccn(S(=O)(=O)c3ccccc3)c2)nc1` [Compound 83, 1-(benzenesulfonyl)-N-[(5-methylpyridin-2-yl)methyl]-1H-pyrrole-3-carboxamide], the “ECdelta5 mV” value is 5000 nM and the “Threshold Shift” value is 13 mV.
Regarding `COc1ccc(S(=O)(=O)n2ccc(C(=O)NCc3ncc(C)cn3)c2)cc1` [Compound 72, 1-(4-methoxybenzene-1-sulfonyl)-N-[(5-methylpyrimidin-2-yl)methyl]-1H-pyrrole-3-carboxamide], the “ECdelta5 mV” value came out at 2800 nM and the “Threshold Shift” value is listed as 20 mV.
For `Cc1ccc(S(=O)(=O)n2ccc(C(=O)NCc3nncs3)c2)cc1` [Compound 56, 1-(4-methylbenzene-1-sulfonyl)-N-[(1,3,4-thiadiazol-2-yl)methyl]-1H-pyrrole-3-carboxamide] the same measures were 6800 nM and 14 mV.
Taken in the same sequence, the figures for `Cc1ccc(S(=O)(=O)n2ccc(C(=O)NCc3cncnc3)c2)cc1` [Compound 58, 1-(4-methylbenzene-1-sulfonyl)-N-[(pyrimidin-5-yl)methyl]-1H-pyrrole-3-carboxamide] were 2200 nM and 22 mV.
Taken in the same sequence, the figures for `COc1ccc(S(=O)(=O)n2ccc(C(=O)NCc3ncc(C)o3)c2)cc1` [Compound 73, 1-(4-methoxybenzene-1-sulfonyl)-N-[(5-methyl-1,3-oxazol-2-yl)methyl]-1H-pyrrole-3-carboxamide] were 2100 nM and 13 mV.
`Cc1ccc(S(=O)(=O)n2ccc(C(=O)NCc3cscn3)c2)cc1` [Compound 49, 1-(4-methylbenzene-1-sulfonyl)-N-[(1,3-thiazol-4-yl)methyl]-1H-pyrrole-3-carboxamide]: the “ECdelta5 mV” value was found to be 2100 nM and the “Threshold Shift” value stood at 13 mV.
With `Cc1cc(CNC(=O)c2ccn(S(=O)(=O)c3ccccc3C)c2)on1` [Compound 78, 1-(2-methylbenzene-1-sulfonyl)-N-[(3-methyl-1,2-oxazol-5-yl)methyl]-1H-pyrrole-3-carboxamide], the “ECdelta5 mV” value is listed as 1900 nM and the “Threshold Shift” value turned out to be 17 mV.
Taken in the same sequence, the figures for `O=C(NCc1cnccn1)c1ccn(S(=O)(=O)c2ccc(F)cc2)c1` [Compound 64, 1-(4-fluorobenzene-1-sulfonyl)-N-[(pyrazin-2-yl)methyl]-1H-pyrrole-3-carboxamide] were 4400 nM and 13 mV.
Taken in the same sequence, the figures for `Cc1ccc(S(=O)(=O)n2ccc(C(=O)NCc3cnc(C)cn3)c2)cc1` [Compound 25, N-[(5-methylpyrazin-2-yl)methyl]-1-(p-tolylsulfonyl) pyrrole-3-carboxamide] were 1100 nM and 37 mV.
For `Cc1ccc(S(=O)(=O)n2ccc(C(=O)NCc3ccc(C)nn3)c2)cc1` [Compound 3, N-[(6-methylpyridazin-3-yl)methyl]-1-(p-tolylsulfonyl)pyrrole-3-carboxamide] the same measures were 1100 nM and 25 mV.
`CNc1cnc(CNC(=O)c2ccn(S(=O)(=O)c3ccc(C)cc3F)c2)cn1` [Compound 106, 1-(2-fluoro-4-methylbenzene-1-sulfonyl)-N-{[5-(methylamino)pyrazin-2-yl]methyl}-1H-pyrrole-3-carboxamide]: the “ECdelta5 mV” value worked out at 550 nM and the “Threshold Shift” value is recorded as 42 mV.
